According to ChEMBL document CHEMBL1201862, “PubChem BioAssay data set” (2004):
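Exposure lasted 48 hours, with cells grown in 96-well plates and compounds tested at five concentrations. GI50 marks 50% less growth.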 Calls of active or inactive are those of the source. No stated cut-off is given here; in the data, active = GI50 up to about 1.1 µM and inactive = higher.

Columns and labels:
Test in all cases: NCI anticancer screen, dose series, 48 h
SK-OV-3 = tested on: SK-OV-3
U-251 = tested on: U-251
OVCAR-8 = tested on: OVCAR-8
HL-60 = tested on: HL-60
A549 = tested on: A549
CCRF-CEM = tested on: CCRF-CEM
SF-295 = tested on: SF-295
NCI-H226 = tested on: NCI-H226
K562 = tested on: K562
UACC-62 = tested on: UACC-62
MOLT-4 = tested on: MOLT-4
HCT-116 = tested on: HCT-116
HOP-92 = tested on: HOP-92
UO-31 = tested on: UO-31
COLO 205 = tested on: COLO 205
SNB-19 = tested on: SNB-19
KM12 = tested on: KM12
SK-MEL-28 = tested on: SK-MEL-28
SW-620 = tested on: SW-620
IGROV-1 = tested on: IGROV-1

Measured: GI50

CC(=O)NC1=C[C@@H]([C@H]2COC(C)(C)O2)OC1=O
inactive: SK-OV-3 > 100 µM | U-251 > 100 µM | OVCAR-8 > 100 µM | HL-60 > 100 µM | A549 > 100 µM | CCRF-CEM > 100 µM | SF-295 > 100 µM | NCI-H226 > 100 µM | K562 > 100 µM | UACC-62 > 100 µM | MOLT-4 > 100 µM | HCT-116 > 100 µM | HOP-92 > 100 µM | UO-31 > 100 µM | COLO 205 > 100 µM | SNB-19 > 100 µM | KM12 > 100 µM | SK-MEL-28 > 100 µM | SW-620 > 100 µM | IGROV-1 > 100 µM

COc1ccc(OC)c(NC(=O)C(=O)C(C(=O)c2ccccc2F)C2OC(=O)c3ccccc32)c1 (stereo not given)
inactive: SK-OV-3 59.4 µM | U-251 19.1 µM | OVCAR-8 35.1 µM | HL-60 34.8 µM | A549 71.1 µM | CCRF-CEM 21.8 µM | SF-295 45.8 µM | NCI-H226 16.6 µM | K562 42.8 µM | UACC-62 36.4 µM | MOLT-4 26.3 µM | HCT-116 37.3 µM | HOP-92 > 100 µM | UO-31 50.6 µM | COLO 205 48.3 µM | SNB-19 36 µM | KM12 > 100 µM | SK-MEL-28 39.7 µM | SW-620 49.2 µM | IGROV-1 89.3 µM

N/C(=C\c1ccc(/C=C(\NC(=O)c2ccccc2)c2nc3c([nH]2)C(=O)c2ccccc2C3=O)cc1)c1nc2c([nH]1)C(=O)c1ccccc1C2=O
inactive: SK-OV-3 24.1 µM | U-251 14.3 µM | OVCAR-8 15.8 µM | HL-60 10 µM | A549 14.2 µM | CCRF-CEM 12.3 µM | SF-295 16.5 µM | NCI-H226 11.5 µM | K562 14.9 µM | UACC-62 11.5 µM | MOLT-4 6.7 µM | HCT-116 14.5 µM | HOP-92 7.83 µM | UO-31 4.84 µM | COLO 205 14.8 µM | SNB-19 12.6 µM | KM12 13.7 µM | SK-MEL-28 16.8 µM | SW-620 20.4 µM | IGROV-1 14.8 µM
